Laboratory results reported in patent US10323043B2, “Derivatives of macrocyclic N-aryl-tricyclopyrimidine-2-amine polyethers as inhibitors of FTL3 and JAK” (PIERRE FABRE MEDICAMENT, priority 2014, dated 2019).

Target: T1, FLT3^D835Y (Homo sapiens, UniProt P36888, D835Y)
T1 construct: purchased Merck Millipore 14-610
T1 sequence (P36888 27-993 D835Y): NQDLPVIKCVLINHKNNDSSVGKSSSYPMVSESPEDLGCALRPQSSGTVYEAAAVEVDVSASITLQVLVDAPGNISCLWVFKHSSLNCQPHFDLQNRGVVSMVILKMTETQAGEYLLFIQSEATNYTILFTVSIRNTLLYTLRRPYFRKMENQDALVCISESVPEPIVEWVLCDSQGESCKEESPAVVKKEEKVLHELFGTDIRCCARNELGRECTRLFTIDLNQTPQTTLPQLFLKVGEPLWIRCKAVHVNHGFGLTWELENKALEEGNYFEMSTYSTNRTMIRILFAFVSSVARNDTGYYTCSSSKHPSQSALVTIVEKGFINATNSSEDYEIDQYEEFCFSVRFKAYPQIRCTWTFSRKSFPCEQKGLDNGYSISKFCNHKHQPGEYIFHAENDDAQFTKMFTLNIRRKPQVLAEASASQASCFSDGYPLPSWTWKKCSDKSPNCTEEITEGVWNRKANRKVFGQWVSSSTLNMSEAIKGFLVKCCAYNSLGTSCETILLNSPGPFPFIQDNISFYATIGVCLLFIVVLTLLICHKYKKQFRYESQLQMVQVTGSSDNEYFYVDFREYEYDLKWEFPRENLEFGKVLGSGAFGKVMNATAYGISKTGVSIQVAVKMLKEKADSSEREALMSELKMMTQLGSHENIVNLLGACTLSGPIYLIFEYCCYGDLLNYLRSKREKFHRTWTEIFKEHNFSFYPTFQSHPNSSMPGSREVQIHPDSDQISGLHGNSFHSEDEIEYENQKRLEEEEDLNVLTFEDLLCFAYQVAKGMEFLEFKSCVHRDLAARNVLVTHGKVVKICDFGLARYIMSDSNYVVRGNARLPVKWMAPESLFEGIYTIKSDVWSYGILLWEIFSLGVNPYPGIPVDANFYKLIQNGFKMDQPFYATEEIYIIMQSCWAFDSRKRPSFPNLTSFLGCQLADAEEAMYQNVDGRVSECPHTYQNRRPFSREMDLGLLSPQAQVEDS
Assay: LanthaScreen TR-FRET binding test, FLT3 D835Y
Conditions: FLT3^D835Y 15 nM, kinase tracer 236 3 nM, 25° C., 1 hour; read-out: Inhibition (IC50) of FLT3^D835Y enzyme
Protocol: FLT3 (#PV3182), JAK2 (#PV4210) and JAK3 (#PV3855) recombinant enzymes were purchased from Life Technologies. FLT3-ITD (#0778-0000-1) and FLT3^D835Y (#14-610) proteins were purchased from ProQinase and Merck Millipore, respectively. All the tests were carried out in 384-well plates. The principle of these binding tests is based on the LanthaScreen® TR-FRET methodology from Life Technologies.
The reaction mixture (15 μL total volume) contains the following compounds: 15 nM FLT3, FLT3-ITD or FLT3^D835Y, 3 nM kinase tracer 236 (Life Technologies, #PV5592) and 6 nM LanthaScreen® anti-GST antibody coupled to a europium chelate (Life Technologies, #PV5594) for FLT3-ITD and FLT3^D835Y or 6 nM LanthaScreen® anti-His antibody coupled to a europium chelate (Life Technologies, #PV5596) for FLT3.
The compounds are evaluated at 8 different concentrations prepared by making dilutions from a starting 10 mM stock solution in dimethylsulfoxide (DMSO) (Sigma, #D8418). The final DMSO concentration in the test is 1%. The reaction is carried out at 25° C. for 1 hour and detected on the EnVision® reader (Perkin Elmer) according to the recommendations of the supplier, Life Technologies.
The results are presented (Table 1) as the concentration values of the compound at which 50% of the kinase activity is inhibited, IC50 (μM), generated using the PRISM software (GraphPad).

| SMILES | IC50 |
| --- | --- |
| CN1CCN(c2ccc3cc2OCCOCCOc2ccc4c(c2)-c2nc(ncc2CC4)N3)CC1 [Compound 3] | 3 nM |
| c1cc(N2CCNCC2)c2cc1Nc1ncc3c(n1)-c1cc(ccc1CC3)OCCOCCO2 [Compound 5] | 0.66 nM |
| c1cc(N2CCC(N3CCOCC3)C2)c2cc1Nc1ncc3c(n1)-c1cc(ccc1CC3)OCCOCCO2 (stereo not shown) [Compound 7] | 7.2 nM |
| c1cc(N2CCC(N3CCCCC3)CC2)c2cc1Nc1ncc3c(n1)-c1cc(ccc1CC3)OCCOCCO2 [Compound 10] | 1.1 nM |
| c1cc(OCCN2CCCC2)c2cc1Nc1ncc3c(n1)-c1cc(ccc1CC3)OCCOCCO2 [Compound 14] | 3.2 nM |
| OC1CCN(c2ccc3cc2OCCOCCOc2ccc4c(c2)-c2nc(ncc2CC4)N3)CC1 [Compound 19] | 5.3 nM |
| CN1CC=C(c2ccc3cc2OCCOCCOc2ccc4c(c2)-c2nc(ncc2CC4)N3)CC1 [Compound 23] | 4.5 nM |
| c1cc(N2CC3CNCC3C2)c2cc1Nc1ncc3c(n1)-c1cc(ccc1CC3)OCCOCCO2 (stereo not shown) [Compound 29] | 1.9 nM |
| CN(C)C1CCN(c2ccc3cc2OCCOCCOc2ccc4c(c2)-c2nc(ncc2CC4)N3)C1 (stereo not shown) [Compound 30] | 3.2 nM |
| CN1CCN(c2ccc3cc2OCCOCCOc2ccc4c(c2)-c2nc(ncc2CC4)N3)CC1(C)C [Compound 40] | 1 nM |
